How the values were obtained:
[1] = biological target: Serotonin 3 (5-HT3) receptor (Rattus norvegicus) (UniProt P35563+Q9JJ16); assay: Inhibition of the von Bezold-Jarisch reflex bradycardia induced by an iv bolus injection of 5-HT; type: functional, organism-based
[2] = biological target: T1, Serotonin 3 (5-HT3) receptor (Rattus norvegicus, UniProt P35563+Q9JJ16); assay: Displacement of [3H]granisetron from 5-hydroxytryptamine 3 receptor of rat cortex
T1 sequence (P35563 whole entry): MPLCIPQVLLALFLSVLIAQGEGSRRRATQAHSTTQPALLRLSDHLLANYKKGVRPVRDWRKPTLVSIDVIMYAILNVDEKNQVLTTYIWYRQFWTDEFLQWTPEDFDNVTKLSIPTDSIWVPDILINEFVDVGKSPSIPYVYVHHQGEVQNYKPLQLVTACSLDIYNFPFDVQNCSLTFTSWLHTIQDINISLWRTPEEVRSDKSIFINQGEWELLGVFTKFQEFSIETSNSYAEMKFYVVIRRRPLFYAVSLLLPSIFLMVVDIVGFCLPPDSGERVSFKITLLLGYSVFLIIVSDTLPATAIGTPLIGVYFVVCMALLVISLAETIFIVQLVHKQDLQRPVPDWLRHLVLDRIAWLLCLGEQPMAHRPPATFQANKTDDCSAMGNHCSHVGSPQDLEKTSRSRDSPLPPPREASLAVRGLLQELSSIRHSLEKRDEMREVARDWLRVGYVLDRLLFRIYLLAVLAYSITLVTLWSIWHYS
T1 sequence (Q9JJ16 whole entry): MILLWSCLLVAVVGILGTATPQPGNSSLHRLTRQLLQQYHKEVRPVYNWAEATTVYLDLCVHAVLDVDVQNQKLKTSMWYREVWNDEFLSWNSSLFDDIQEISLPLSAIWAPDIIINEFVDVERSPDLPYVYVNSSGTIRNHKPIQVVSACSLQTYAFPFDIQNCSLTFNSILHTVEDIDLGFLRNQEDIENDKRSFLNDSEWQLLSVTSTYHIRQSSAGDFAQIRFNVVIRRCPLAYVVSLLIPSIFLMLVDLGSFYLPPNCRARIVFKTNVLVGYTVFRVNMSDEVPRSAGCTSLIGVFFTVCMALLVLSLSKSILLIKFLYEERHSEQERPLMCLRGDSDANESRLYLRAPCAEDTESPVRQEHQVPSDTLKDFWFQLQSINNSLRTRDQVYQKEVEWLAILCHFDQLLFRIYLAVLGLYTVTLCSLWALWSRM

Inhibitory dose [1]	SMILES	Ki [2]	Inhibition [1]
0.5 µg/kg	COc1cc(N)c(Cl)cc1C(=O)NC1CC2CN(Cc3ccccc3)CC(C1)N2C (stereo not drawn)		
	CN1C2CNCC1CC(NC(=O)N1CC(C)(C)c3ccccc31)C2 (stereo not drawn)	1 nM	
1.8 µg/kg	CN1C2CC(NC(=O)N3CC(C)(C)c4ccccc43)CC1CN(Cc1ccccc1)C2 (stereo not drawn)		
2.5 µg/kg	COc1cc(N)c(Cl)cc1C(=O)NC1CC2CN(C)CC(C1)N2C (stereo not drawn)		
	CCCCN1CC2CC(NC(=O)N3CC(C)(C)c4ccccc43)CC(C1)N2C (stereo not drawn)	20 nM	
	CC(C)N1CC2CC(NC(=O)c3nn(C)c4ccccc34)CC(C1)N2C (stereo not drawn)	0.794 nM	0.65 µg/kg
	CN1CC2CC(NC(=O)N3CC(C)(C)c4ccccc43)CC(C1)N2C (stereo not drawn)	1 nM	
	CC(=O)N1CC2CC(NC(=O)N3CC(C)(C)c4ccccc43)CC(C1)N2C (stereo not drawn)	3.98 nM	
3 µg/kg	CN1C2CC(NC(=O)c3nn(C)c4ccccc34)CC1CN(c1ccccc1)C2 (stereo not drawn)		
	CCCCN1CC2CC(NC(=O)c3nn(C)c4ccccc34)CC(C1)N2C (stereo not drawn)	2.51 nM	
	CCCN1CC2CC(NC(=O)c3nn(C)c4ccccc34)CC(C1)N2C (stereo not drawn)	3.16 nM	
	CN1C2CC(NC(=O)N3CC(C)(C)c4ccccc43)CC1CN(C(=O)c1ccccc1)C2 (stereo not drawn)	10 nM	
0.7 µg/kg	CN1C2CCCC1CC(NC(=O)c1nn(C)c3ccccc13)C2 (stereo not drawn)		
	CC(C)CN1CC2CC(NC(=O)c3nn(C)c4ccccc34)CC(C1)N2C (stereo not drawn)	3.16 nM	

SMILES	Inhibitory dose [1]	Ki [2]	Inhibition [1]
CCN1CC2CC(NC(=O)N3CC(C)(C)c4ccccc43)CC(C1)N2C (stereo not drawn)	0.6 µg/kg	2.51 nM	
CN1C2CC(NC(=O)c3nn(C)c4ccccc34)CC1CN(Cc1ccccc1)C2 (stereo not drawn)	0.16 µg/kg	0.501 nM	
CCN1CC2CC(NC(=O)c3nn(C)c4ccccc34)CC(C1)N2C (stereo not drawn)	0.8 µg/kg	1.58 nM	
CC(C)N1CC2CC(NC(=O)N3CC(C)(C)c4ccccc43)CC(C1)N2C (stereo not drawn)	0.43 µg/kg	1.26 nM	

— ChEMBL document CHEMBL1150460, “Synthesis and 5-HT3 receptor antagonist potency of novel (endo) 3,9-diazabicyclo[3.3.1]nonan-7-amino derivatives” (Bioorg Med Chem Lett, 1994)
